Source: ChEMBL document CHEMBL4368904 (J Med Chem, 2019)
The source made the active and inactive calls. No cut-off for these calls is given here.

Experiments:
[1] = Cmax in Sprague-Dawley rat at 3 mg/kg, po; type: ADME, organism-based; design: dose 3 mg/kg, route oral; details: in vivo
Mus musculus [2] = assay: Induction of hypothermia in C57BL/6J mouse assessed as body temperature at […], icv measured after 10 hrs post dose; type: functional, organism-based
[3] = Stability in rat plasma; type: ADME, cell-free
[4] = Fraction unbound in human plasma at 10 uM; type: ADME, cell-free
[5] = Stability in mouse plasma; type: ADME, cell-free
[6] = Stability of the compound in simulated gastric fluid; type: ADME; details: simulated gi fluid
[7] = biological target: T1, Adenosine receptor A3 (Mus musculus) (UniProt Q61618); assay: Agonist activity at mouse A3AR adenosine receptor at 10 uM after 60 mins by [35S]GTPgammaS binding assay relative to (2S,3S,4R,5R)-5-(6-amino-9H-purin-9-yl)-N-ethyl-3,4-dihydroxytetrahydrofuran-2-carboxamide; type: functional
T1 sequence (whole entry): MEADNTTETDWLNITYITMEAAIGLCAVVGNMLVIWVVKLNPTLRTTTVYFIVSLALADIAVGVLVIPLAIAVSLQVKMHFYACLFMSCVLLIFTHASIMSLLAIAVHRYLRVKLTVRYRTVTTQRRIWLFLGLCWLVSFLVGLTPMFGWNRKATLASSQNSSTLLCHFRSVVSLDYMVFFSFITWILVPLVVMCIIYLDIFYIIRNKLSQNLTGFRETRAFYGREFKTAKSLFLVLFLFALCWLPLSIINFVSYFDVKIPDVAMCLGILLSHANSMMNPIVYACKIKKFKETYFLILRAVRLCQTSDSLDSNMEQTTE

Adenosine receptor A1 [8] = biological target: T2, Adenosine receptor A1 (Homo sapiens, UniProt P30542); assay: Agonist activity at human A1A adenosine receptor expressed in CHOKI cells assessed as induction of beta-arrestin2 recruitment after 60 mins; type: cell-based
T2 sequence (P30542 whole entry): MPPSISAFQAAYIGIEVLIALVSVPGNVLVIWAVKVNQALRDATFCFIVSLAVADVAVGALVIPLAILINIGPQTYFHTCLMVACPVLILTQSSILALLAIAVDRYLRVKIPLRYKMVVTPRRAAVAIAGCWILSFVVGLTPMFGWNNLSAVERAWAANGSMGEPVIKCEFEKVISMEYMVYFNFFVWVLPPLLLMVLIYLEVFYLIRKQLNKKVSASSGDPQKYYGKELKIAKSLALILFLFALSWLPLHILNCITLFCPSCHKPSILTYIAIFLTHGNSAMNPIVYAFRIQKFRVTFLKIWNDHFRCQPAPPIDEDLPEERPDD

Mus musculus [9] = assay: Induction of hypothermia in A1AR knock out C57BL/6J mouse assessed as effect on body temperature at 3 mg/kg, ip measured at 60 mins post dose; type: functional, organism-based
[10] = Fraction unbound in mouse plasma at 10 uM; type: ADME, cell-free
[11] = Half life in Sprague-Dawley rat at 1 to 10 mg/kg, po; type: ADME, organism-based; details: in vivo
[12] = Oral bioavailability in Sprague-Dawley rat at 1 to 10 mg/kg; type: ADME, organism-based; details: in vivo
[13] = Stability in human plasma; type: ADME, cell-free
Mus musculus [14] = assay: Induction of hypothermia in C57BL/6J mouse assessed as activity counts at 3 mg/kg, ip measured at 60 mins post dose (reference value: 15.5 +/- 5.5); type: functional
Cytochrome P450 1A2 = Cytochrome P450 1A2 (Homo sapiens, UniProt P05177); assay: Inhibition of human CYP1A2; type: ADME
[15] = Fraction unbound in rat plasma at 10 uM; type: ADME, cell-free
Mus musculus [16] = assay: Induction of hypothermia in A3AR knock out C57BL/6J mouse assessed as effect on body temperature at 3 mg/kg, ip measured at 60 mins post dose; type: functional, organism-based
Cytochrome P450 2C19 = Cytochrome P450 2C19 (Homo sapiens, UniProt P33261); assay: Inhibition of human CYP2C19; type: ADME
HepG2 = assay: Cytotoxicity against human HepG2 cells; type: cell-based
Adenosine receptor A1 [17] = biological target: T2, Adenosine receptor A1; assay: Agonist activity at human A1A adenosine receptor expressed in HEK cells assessed as inhibition of forskolin-stimulated cAMP production after 60 mins; type: functional, cell-based
Adenosine receptor A1 [18] = biological target: T2, Adenosine receptor A1; assay: Agonist activity at human A1A adenosine receptor expressed in HEK cell membranes incubated for 60 mins by [35S]GTPgammaS binding assay; type: functional
[19] = biological target: Voltage-gated inwardly rectifying potassium channel KCNH2 (Homo sapiens, UniProt Q12809); assay: Inhibition of human ERG by fluorescence polarization assay
[20] = Stability of the compound in simulated intestinal fluid; type: ADME; details: simulated gi fluid
Mus musculus [21] = assay: Induction of hypothermia in A1AR/A3AR knock out C57BL/6J mouse assessed as effect on body temperature at 3 mg/kg, ip measured at 60 mins post dose; type: functional, organism-based
Mus musculus [22] = assay: Induction of hypothermia in C57BL/6J mouse assessed as body temperature at 3 mg/kg, ip measured at 60 mins post dose (reference value: 36.3 +/- 0.8 degC); type: functional
Cytochrome P450 3A4 = Cytochrome P450 3A4 (Homo sapiens, UniProt P08684)
Description: Inhibition of human CYP3A4 using midazolam as substrate

[23] = Elimination half life in CD1 mouse at 1 to 10 mg/kg, po; type: ADME, organism-based; details: in vivo
[24] = Oral bioavailability in CD1 mouse at 1 mg/kg; type: ADME, organism-based; details: in vivo
[25] = Toxicity in rhesus monkey at 1 to 3 mg/kg dosed in food treat measured up to 4 hrs post dose; type: organism-based, Macaca mulatta; details: in vivo, po
[26] = Oral bioavailability in CD1 mouse at 3 mg/kg; type: ADME, organism-based; details: in vivo
[27] = Elimination half life in CD1 mouse at 3 to 30 mg/kg, ip; type: ADME, organism-based; details: in vivo
[28] = Toxicity in cynomolgus monkey effect on clinical parameters at 0.5 mg/kg, iv or 1 mg/kg, po measured after 1 day post dose; type: organism-based, Macaca fascicularis; details: in vivo, 24 h
[29] = Stability in simulated intestinal fluid; type: ADME; details: simulated gi fluid
[30] = Stability in human liver microsomes; type: ADME, Microsome
Adenosine receptor A1 [31] = biological target: Adenosine receptor A1 (Rattus norvegicus, UniProt P25099); assay: Agonist activity at rat A1A adenosine receptor expressed in CHO-K1 cell membranes incubated for 60 mins by [35S]GTPgammaS binding assay; type: functional
[32] = Protein binding in rat plasma; type: ADME, cell-free
[33] = Protein binding in mouse plasma; type: ADME, cell-free
[34] = Oral bioavailability in cynomolgus monkey at 1 mg/kg; type: ADME, organism-based, Macaca fascicularis; details: in vivo
Cytochrome P450 2D6 = Cytochrome P450 2D6 (Homo sapiens, UniProt P10635)
Description: Inhibition of human CYP2D6 using dextromethorphan as substrate

[35] = Toxicity in Sprague-Dawley rat assessed as increase in blood pressure at 3 mg/kg, ip; type: organism-based; details: in vivo
Adenosine receptor A1 [36] = biological target: T3, Adenosine receptor A1 (Mus musculus, UniProt Q60612); assay: Displacement of [3H]N6-R-phenylisopropyladenosine from mouse A1A adenosine receptor expressed in CHO cell membranes after 60 mins by scintillation proximity assay
T3 sequence (Q60612 whole entry): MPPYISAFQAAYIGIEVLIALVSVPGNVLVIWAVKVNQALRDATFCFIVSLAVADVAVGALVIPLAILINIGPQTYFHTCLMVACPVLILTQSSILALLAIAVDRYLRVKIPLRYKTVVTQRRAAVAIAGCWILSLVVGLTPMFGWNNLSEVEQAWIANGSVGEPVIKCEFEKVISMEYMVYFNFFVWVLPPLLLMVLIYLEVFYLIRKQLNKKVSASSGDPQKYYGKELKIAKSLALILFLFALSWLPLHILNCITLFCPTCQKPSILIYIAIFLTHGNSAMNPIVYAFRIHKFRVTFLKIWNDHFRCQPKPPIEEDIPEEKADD

[37] = Toxicity in Sprague-Dawley rat assessed as reduction in heart rate at 3 mg/kg, ip; type: organism-based; details: in vivo
Cytochrome P450 2C9 = Cytochrome P450 2C9 (Homo sapiens, UniProt P11712)
Description: Inhibition of human CYP2C9 using tolbutamide as substrate

[38] = Stability in simulated gastric fluid after 120 mins; type: ADME; details: read-out: Stability

Cytochrome P450 1A2, sequence (P05177 whole entry): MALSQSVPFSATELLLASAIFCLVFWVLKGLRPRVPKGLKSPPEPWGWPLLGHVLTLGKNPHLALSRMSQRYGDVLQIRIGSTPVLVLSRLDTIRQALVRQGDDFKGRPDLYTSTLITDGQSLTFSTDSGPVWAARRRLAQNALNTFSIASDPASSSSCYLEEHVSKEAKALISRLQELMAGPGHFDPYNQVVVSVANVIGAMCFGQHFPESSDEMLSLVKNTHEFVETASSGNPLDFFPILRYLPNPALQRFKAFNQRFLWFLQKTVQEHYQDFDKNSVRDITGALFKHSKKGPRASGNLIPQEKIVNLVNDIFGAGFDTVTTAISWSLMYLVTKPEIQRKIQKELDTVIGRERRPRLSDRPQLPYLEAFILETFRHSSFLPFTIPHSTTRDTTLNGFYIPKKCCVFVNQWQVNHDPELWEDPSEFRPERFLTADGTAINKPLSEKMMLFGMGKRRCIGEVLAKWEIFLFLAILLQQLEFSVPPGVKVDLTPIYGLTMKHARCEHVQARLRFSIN
Cytochrome P450 2C9, sequence (P11712 whole entry): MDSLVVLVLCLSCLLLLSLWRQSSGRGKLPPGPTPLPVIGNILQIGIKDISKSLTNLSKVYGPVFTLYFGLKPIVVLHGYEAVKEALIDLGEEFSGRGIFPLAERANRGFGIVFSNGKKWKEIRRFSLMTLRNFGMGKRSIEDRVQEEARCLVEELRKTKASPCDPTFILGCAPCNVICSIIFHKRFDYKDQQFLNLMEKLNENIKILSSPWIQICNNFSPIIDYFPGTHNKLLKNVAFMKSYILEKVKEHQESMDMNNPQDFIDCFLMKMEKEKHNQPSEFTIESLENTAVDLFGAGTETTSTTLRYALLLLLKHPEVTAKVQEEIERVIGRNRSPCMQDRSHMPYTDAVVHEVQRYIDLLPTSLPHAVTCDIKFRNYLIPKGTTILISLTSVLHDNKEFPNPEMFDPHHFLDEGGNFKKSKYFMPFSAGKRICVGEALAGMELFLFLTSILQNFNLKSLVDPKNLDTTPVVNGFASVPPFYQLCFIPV
Voltage-gated inwardly rectifying potassium channel KCNH2, sequence (Q12809 whole entry): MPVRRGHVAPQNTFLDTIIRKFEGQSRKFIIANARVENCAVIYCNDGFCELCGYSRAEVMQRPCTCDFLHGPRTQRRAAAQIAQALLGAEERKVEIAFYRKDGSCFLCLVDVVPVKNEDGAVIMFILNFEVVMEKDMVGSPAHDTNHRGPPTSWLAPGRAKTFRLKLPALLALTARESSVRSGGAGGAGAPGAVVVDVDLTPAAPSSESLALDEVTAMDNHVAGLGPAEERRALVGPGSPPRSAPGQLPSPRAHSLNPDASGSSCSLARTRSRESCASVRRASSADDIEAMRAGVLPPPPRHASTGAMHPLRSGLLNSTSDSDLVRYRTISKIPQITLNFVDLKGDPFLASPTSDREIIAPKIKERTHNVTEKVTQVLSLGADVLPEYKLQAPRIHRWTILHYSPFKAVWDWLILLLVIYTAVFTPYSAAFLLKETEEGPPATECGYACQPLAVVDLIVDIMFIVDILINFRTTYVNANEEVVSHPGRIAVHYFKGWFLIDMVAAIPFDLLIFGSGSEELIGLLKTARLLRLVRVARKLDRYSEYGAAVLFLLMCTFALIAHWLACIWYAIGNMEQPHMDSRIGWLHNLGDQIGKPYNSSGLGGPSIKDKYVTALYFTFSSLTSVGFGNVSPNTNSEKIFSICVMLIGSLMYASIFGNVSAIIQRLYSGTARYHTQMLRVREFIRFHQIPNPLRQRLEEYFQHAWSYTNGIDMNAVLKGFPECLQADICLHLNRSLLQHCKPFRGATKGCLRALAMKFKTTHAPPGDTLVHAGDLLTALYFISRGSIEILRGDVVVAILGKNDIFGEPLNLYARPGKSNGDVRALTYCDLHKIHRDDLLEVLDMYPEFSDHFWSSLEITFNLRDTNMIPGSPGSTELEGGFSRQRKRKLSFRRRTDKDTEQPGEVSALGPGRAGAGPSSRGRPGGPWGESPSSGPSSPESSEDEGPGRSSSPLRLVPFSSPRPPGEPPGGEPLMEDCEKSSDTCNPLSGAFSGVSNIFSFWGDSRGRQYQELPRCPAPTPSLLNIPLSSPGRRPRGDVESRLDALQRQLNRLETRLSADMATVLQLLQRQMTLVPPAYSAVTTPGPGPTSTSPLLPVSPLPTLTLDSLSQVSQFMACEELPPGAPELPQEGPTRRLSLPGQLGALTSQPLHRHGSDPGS
Adenosine receptor A1 (Rattus norvegicus, UniProt P25099), sequence (P25099 whole entry): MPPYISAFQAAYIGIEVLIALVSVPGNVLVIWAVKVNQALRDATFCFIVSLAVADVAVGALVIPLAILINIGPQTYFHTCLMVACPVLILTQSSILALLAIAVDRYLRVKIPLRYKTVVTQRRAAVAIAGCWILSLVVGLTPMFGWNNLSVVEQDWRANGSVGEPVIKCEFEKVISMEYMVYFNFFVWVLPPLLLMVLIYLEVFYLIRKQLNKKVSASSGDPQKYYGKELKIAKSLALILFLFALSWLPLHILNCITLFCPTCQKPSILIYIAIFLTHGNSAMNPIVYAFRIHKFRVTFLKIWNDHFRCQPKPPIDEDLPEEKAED
Cytochrome P450 2C19, sequence (P33261 whole entry): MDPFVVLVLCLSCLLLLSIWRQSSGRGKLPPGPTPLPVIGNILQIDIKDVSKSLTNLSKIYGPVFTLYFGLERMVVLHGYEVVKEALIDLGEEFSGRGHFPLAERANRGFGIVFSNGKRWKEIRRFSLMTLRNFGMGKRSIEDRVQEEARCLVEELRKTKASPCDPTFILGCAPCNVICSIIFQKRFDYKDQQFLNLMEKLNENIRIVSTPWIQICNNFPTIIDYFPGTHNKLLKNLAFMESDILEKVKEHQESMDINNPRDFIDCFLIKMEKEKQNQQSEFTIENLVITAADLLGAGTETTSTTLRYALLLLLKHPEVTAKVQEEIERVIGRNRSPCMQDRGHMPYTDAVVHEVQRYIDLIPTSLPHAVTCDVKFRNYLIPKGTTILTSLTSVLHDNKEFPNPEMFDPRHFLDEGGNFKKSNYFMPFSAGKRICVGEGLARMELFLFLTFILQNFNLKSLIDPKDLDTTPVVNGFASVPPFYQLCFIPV
Cytochrome P450 3A4, sequence (P08684 whole entry): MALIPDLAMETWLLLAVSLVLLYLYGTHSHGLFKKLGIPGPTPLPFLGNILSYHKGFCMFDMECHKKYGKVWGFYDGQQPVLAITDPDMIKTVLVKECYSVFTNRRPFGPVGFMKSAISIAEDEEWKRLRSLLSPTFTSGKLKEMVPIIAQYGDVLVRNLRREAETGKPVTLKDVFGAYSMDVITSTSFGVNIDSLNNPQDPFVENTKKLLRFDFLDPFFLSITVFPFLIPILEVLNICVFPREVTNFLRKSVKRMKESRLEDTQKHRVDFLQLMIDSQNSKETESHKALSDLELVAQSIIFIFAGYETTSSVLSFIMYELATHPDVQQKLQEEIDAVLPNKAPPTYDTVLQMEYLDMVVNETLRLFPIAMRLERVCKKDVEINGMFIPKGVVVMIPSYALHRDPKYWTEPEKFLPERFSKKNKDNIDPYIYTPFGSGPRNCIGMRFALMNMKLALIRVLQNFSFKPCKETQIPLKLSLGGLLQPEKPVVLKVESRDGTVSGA
Cytochrome P450 2D6, sequence (P10635 whole entry): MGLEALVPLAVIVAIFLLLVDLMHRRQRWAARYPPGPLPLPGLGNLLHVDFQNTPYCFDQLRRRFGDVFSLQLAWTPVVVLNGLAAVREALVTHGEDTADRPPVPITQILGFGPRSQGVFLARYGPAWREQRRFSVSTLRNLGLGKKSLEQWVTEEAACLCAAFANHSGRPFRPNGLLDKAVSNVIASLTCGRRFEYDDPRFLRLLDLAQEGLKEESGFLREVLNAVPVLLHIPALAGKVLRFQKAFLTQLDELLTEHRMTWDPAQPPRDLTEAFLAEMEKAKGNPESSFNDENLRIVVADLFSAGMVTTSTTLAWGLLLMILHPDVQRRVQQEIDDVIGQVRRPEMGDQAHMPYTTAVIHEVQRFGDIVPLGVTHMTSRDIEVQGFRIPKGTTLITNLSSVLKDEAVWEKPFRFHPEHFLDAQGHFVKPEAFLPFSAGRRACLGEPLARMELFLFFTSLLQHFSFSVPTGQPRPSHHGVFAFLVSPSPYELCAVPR

## OC[C@H]1O[C@@H](n2cnc3c(NC(C4CCC4)C4CCC4)ncnc32)[C@H](O)[C@@H]1O
[1]
  Cmax: 121 ng/mL
Mus musculus [2]
  Activity: Active
[3]
  Stability: Stable
[4]
  Fu: 6.05%
[5]
  Stability: Stable
[6]
  Stability: Stable
[7]
  Emax: 70%
Adenosine receptor A1 [8]
  EC50: 209 nM
Mus musculus [9]
  Activity: inactive
[10]
  Fu: 20.6%
[11]
  half-life: 0.9 to 1.3 h
[12]
  bioavailability: 31 to 43%
[13]
  Stability: Stable
Mus musculus [14]
  Activity: 6.6
Cytochrome P450 1A2
  inhibition (INH): Not Active
[15]
  Fu: 14.6%
Mus musculus [16]
  Activity: Active
Cytochrome P450 2C19
  inhibition (INH): Not Active
HepG2
  Activity: Non-Toxic
Adenosine receptor A1 [17]
  IC50: 0.14 nM
Adenosine receptor A1 [18]
  EC50: 28 nM
[19]
  IC50: > 30000 nM
[20]
  Stability: Stable
Mus musculus [21]
  Activity: inactive
Mus musculus [22]
  T: 33 °C

## O[C@@H]1[C@H](O)[C@@H]2C[C@@H]2[C@H]1n1cnc2c(NC(C3CC3)C3CC3)nc(Cl)nc21
Cytochrome P450 3A4
  IC50: > 25000 nM
[23]
  beta t1/2: 5 to 11 h
[24]
  bioavailability: 98%
[25]
  Activity: Non-Toxic
[26]
  bioavailability: 124%
[27]
  beta t1/2: 2.5 to 4 h
[28]
  Activity: Non-Toxic
[29]
  Stability: Stable
[30]
  Stability: Stable
Adenosine receptor A1 [31]
  EC50: 6.65 nM
Mus musculus [14]
  Activity: 5.5
[32]
  PPB: 90%
[33]
  PPB: 94%
[34]
  F: 24%
Cytochrome P450 2D6
  IC50: > 25000 nM
[35]
  Activity: Toxic
Adenosine receptor A1 [36]
  Ki: 5.2 nM
[37]
  Activity: Toxic
Cytochrome P450 2C9
  IC50: > 25000 nM
Mus musculus [22]
  T: 33.4 °C
[38]
  remaining at 2 h: 51%
